For the assay, the target named is T1, hNET (Homo sapiens, UniProt P23975).
T1 construct: expressed in transfected cells
In words: Norepinephrine (NE) uptake assay in MDCK-Net6 cells stably transfected with human hNET. The assay is classed as cell-based.

The mark [1] stands for this setting: test compound 1 μM, [3H]NE uptake, MDCK-Net6 cells, read-out: % Inhibition @ 1 μM (hNET).
Where [2] appears, read: MDCK-Net6, read-out: % Inhibition @ 1 μM (hNET).

The structures appear in SMILES notation. Structures can show the parent of a compound that is named as a salt. Where two headings read alike, the source gives them in different places.

T1 sequence (P23975 whole entry): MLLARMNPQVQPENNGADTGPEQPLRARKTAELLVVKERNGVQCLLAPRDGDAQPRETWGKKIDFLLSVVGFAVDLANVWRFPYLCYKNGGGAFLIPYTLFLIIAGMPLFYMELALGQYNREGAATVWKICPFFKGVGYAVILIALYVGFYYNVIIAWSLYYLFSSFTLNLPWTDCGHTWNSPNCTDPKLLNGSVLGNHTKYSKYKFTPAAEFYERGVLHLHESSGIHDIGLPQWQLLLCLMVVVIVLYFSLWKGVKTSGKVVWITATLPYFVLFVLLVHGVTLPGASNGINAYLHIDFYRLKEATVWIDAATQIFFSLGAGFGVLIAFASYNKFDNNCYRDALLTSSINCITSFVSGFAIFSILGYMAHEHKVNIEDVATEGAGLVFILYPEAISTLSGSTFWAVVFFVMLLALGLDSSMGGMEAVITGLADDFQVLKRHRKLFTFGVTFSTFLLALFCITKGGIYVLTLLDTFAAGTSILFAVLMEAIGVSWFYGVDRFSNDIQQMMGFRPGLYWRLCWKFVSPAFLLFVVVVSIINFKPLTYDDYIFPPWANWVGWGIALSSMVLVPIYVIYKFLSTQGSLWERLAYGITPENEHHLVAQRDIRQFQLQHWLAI

Consider `CNC[C@@H](O)[C@H](c1cccc(F)c1)n1cc(-c2ccc(OC)cc2)c2ccccc21` [Example 169, (1S,2R)-1-(3-fluorophenyl)-1-[3-(4-methoxyphenyl)-1H-indol-1-yl]-3-(methylamino)propan-2-ol hydrochloride], for which the inhibition (commonly the change of the read-out against control, counted positive when it falls) at 1 µM under setting [1] is 72%.

As for `CNC[C@@H](O)[C@H](c1ccc(F)cc1)n1ccc2ccccc21` [Example 51, (1S,2R)-1-(4-fluorophenyl)-1-(1H-indol-1-yl)-3-(methylamino)propan-2-ol hydrochloride], the inhibition at 1 µM under setting [2] amounted to 87%. Same read-out and setting: with `CNC[C@@H](O)[C@H](c1ccccc1Cl)n1ccc2ccccc21` [Example 38, (1S,2R)-1-(2-chlorophenyl)-1-(1H-indol-1-yl)-3-(methylamino)propan-2-ol hydrochloride] the figure was 71.9%; with `CCn1c(=O)n([C@@H](c2ccccc2)[C@H](O)CNC)c2c(F)cccc21` [Example 207, 1-Ethyl-4-fluoro-3-[(1S,2R)-2-hydroxy-3-(methylamino)-1-phenylpropyl]-1,3-dihydro-2H-benzimidazol-2-one hydrochloride], 98.3%. For `CNC[C@@H](O)[C@H](c1ccc(F)cc1)n1cc(C)c2ccccc21` [Example 49, (1S,2R)-1-(4-fluorophenyl)-3-(methylamino)-1-(3-methyl-1H-indol-1-yl)propan-2-ol hydrochloride], the inhibition at 1 µM under setting [1] is 101%. The same measure, in the same setting: with `CNC[C@@H](O)[C@H](c1ccccc1)N1CCc2cccc(C)c21` [Example 66, (1S,2R)-3-(methylamino)-1-(7-methyl-2,3-dihydro-1H-indol-1-yl)-1-phenylpropan-2-ol hydrochloride] the figure was 86.6%; with `CNC[C@@H](O)[C@H](c1ccccc1)n1ccc2c(OC)cccc21` [Example 78, (1S,2R)-1-(4-methoxy-1H-indol-1-yl)-3-(methylamino)-1-phenyl propan-2-ol hydrochloride], 70.9%; with `Cc1cn([C@@H](c2ccccc2)[C@H](O)CN)c2c(F)cccc12` [Example 180, (1S,2R)-3-amino-1-(7-fluoro-3-methyl-1H-indol-1-yl)-1-phenylpropan-2-ol hydrochloride], 70.4%. For the compound `CNC[C@@H](O)[C@H](c1ccccc1)n1c(=O)n(C2CCCC2)c2ccccc21` [Example 202, 1-Cyclopentyl-3-[(1S,2R)-2-hydroxy-3-(methylamino)-1-phenylpropyl]-1,3-dihydro-2H-benzimidazol-2-one hydrochloride], the inhibition at 1 µM under setting [2] amounted to 92.7%. `CNC[C@@H](O)[C@H](c1ccccc1)N1C(=O)C2(CCCCC2)c2cc(Br)ccc21` [Example 113, 5′-bromo-1′-[(1S,2R)-2-hydroxy-3-(methylamino)-1-phenylpropyl]-spiro[cyclohexane-1,3′-indol]-2′(1′H)-one hydrochloride]: the inhibition at 1 µM under setting [1] was found to be 99.7%. Regarding `CNC[C@@H](O)[C@H](c1ccccc1)n1ccc2ccc(OC)cc21` [Example 79, (1S,2R)-1-(6-methoxy-1H-indol-1-yl)-3-(methylamino)-1-phenyl propan-2-ol hydrochloride], under setting [1], the inhibition at 1 µM is 66%. On the same count and under the same terms, as for `CNC[C@@H](O)[C@H](c1ccccc1)n1ccc2cc(C#N)ccc21` [Example 130, 1-[(1S,2R)-2-hydroxy-3-(methylamino)-1-phenylpropyl]-1H-indole-5-carbonitrile hydrochloride], the figure is 76%; as for `CNC[C@@H](O)[C@H](c1cccs1)n1ccc2ccccc21` [Example 103, (1R,2R)-1-(1H-indol-1-yl)-3-(methylamino)-1-(2-thienyl)propan-2-ol hydrochloride], 86.1%. As to `CNC[C@@H](O)[C@H](c1ccccc1)n1c(=O)n(C(C)C)c2ccccc21` [Example 203, 1-[(1S,2R)-2-hydroxy-3-(methylamino)-1-phenylpropyl]-3-isopropyl-1,3-dihydro-2H-benzimidazol-2-one hydrochloride], under setting [2], the inhibition at 1 µM was 98.9%. Turning to `CNC[C@@H](O)[C@H](c1ccc(OC(F)(F)F)cc1)n1ccc2ccccc21` (racemic) [Example 39, (1RS,2SR)-1-(1H-indol-1-yl)-3-(methylamino)-1-[4-(trifluoromethoxy)phenyl]propan-2-ol hydrochloride], the inhibition at 1 µM under setting [1] turned out to be 57.4%. On the same count and under the same terms, with `CNC[C@@H](O)[C@H](c1ccccc1)N1C(=O)C2(CCC2)c2ccccc21` [Example 107, 1′-[(1S,2R)-2-hydroxy-3-(methylamino)-1-phenylpropyl]spiro[cyclo-butane-1,3′-indol]-2′(1′H)-one hydrochloride] the figure was 96.6%; with `Cc1cn([C@@H](c2ccccc2)[C@H](O)CN)c2ccc(F)cc12` (racemic) [Example 118, (1SR,2RS)-3-amino-1-(5-fluoro-3-methyl-1H-indol-1-yl)-1-phenylpropan-2-ol hydrochloride], 67.9%. Still for that read-out and setting: as for `O[C@@H](CN1CCOCC1)[C@@H](c1ccccc1)n1ccc2ccccc21` (racemic) [Example 3, (1RS,2SR)-1-(1H-indol-1-yl)-3-morpholin-4-yl-1-phenylpropan-2-ol hydrochloride], the figure is 17.6%. As for `CNC[C@@H](O)[C@H](c1cccc(Cl)c1)n1ccc2ccccc21` [Example 33, (1S,2R)-1-(3-chlorophenyl)-1-(1H-indol-1-yl)-3-(methylamino)propan-2-ol hydrochloride], the inhibition at 1 µM under setting [2] was 99.4%.

As for `Cc1cn([C@@H](c2ccccc2)[C@H](O)CN)c2ccccc12` [Example 178, (1S,2R)-3-amino-1-(3-methyl-1H-indol-1-yl)-1-phenylpropan-2-ol hydrochloride], under setting [2], the inhibition at 1 µM came out at 69.2%.

Turning to `CNC[C@@H](O)[C@@H](c1ccccc1)n1ccc2ccccc21` [Example 29, (1R,2R)-1-(1H-indol-1-yl)-3-(methylamino)-1-phenylpropan-2-ol hydrochloride], the “% Inhibition @ 1 μM (hNET)” value (hydrochloride, 1 µM) is recorded as 89.5%. Take `CNC[C@@H](O)[C@H](c1ccccc1)n1cc(C)c2cc(F)ccc21` [Example 117, (1S,2R)-1-(5-fluoro-3-methyl-1H-indol-1-yl)-3-(methylamino)-1-phenylpropan-2-ol hydrochloride]: the inhibition at 1 µM under setting [1] turned out to be 95.3%.

Take `CNC[C@@H](O)[C@@H](c1ccccc1)n1ccc2ccccc21` (racemic) [Example 16, (1RS,2RS)-1-(1H-indol-1-yl)-3-(methylamino)-1-phenylpropan-2-ol hydrochloride]: the inhibition at 1 µM under setting [2] was 96.8%.

As to `CNC[C@@H](O)[C@H](c1ccccc1)n1cc(C(C)C)c2ccccc21` [Example 154, (1S,2R)-1-(3-isopropyl-1H-indol-1-yl)-3-(methylamino)-1-phenylpropan-2-ol hydrochloride], the inhibition at 1 µM under setting [1] stood at 96.1%. Same read-out and setting: with `CNC[C@@H](O)[C@H](c1cc(F)cc(F)c1)N1CCc2ccc(F)cc21` [Example 174, (1S,2R)-1-(3,5-difluorophenyl)-1-(6-fluoro-2,3-dihydro-1H-indol-1-yl)-3-(methylamino)propan-2-ol hydrochloride] the figure was 99.1%. For the compound `CNC[C@@H](O)[C@H](c1cccc(F)c1)n1ccc2cccc(F)c21` [Example 183, (1S,2R)-1-(7-fluoro-1H-indol-1-yl)-1-(3-fluorophenyl)-3-(methylamino)propan-2-ol hydrochloride], the inhibition at 1 µM under setting [2] was 100%. For `CNC[C@@H](O)[C@H](c1cccc(F)c1)n1cc(-c2ccccc2C)c2ccccc21` [Example 62, (1S,2R)-1-(3-fluorophenyl)-3-(methylamino)-1-[3-(2-methylphenyl)-1H-indol-1-yl]propan-2-ol], under setting [1], the inhibition at 1 µM came out at 99.7%. On to `CCNC[C@H](O)[C@@H](c1ccccc1)n1ccc2cc(F)ccc21` (racemic) [Example 18, (1RS,2SR)-3-(ethylamino)-1-(5-fluoro-1H-indol-1-yl)-1-phenylpropan-2-ol hydrochloride], for which the inhibition at 1 µM under setting [1] stood at 11.3%.

As to `CN1CCN(C[C@@H](O)[C@H](c2cccc(F)c2)n2ccc3ccccc32)CC1` [Example 58, (1S,2R)-1-(3-fluorophenyl)-1-(1H-indol-1-yl)-3-(4-methylpiperazin-1-yl)propan-2-ol dihydrochloride], the inhibition at 1 µM under setting [1] stood at 26.5%. Same read-out and setting: as for `CNC[C@@H](O)[C@H](c1cccc(F)c1)n1cc(-c2ccccc2OC)c2ccccc21` [Example 176, (1S,2R)-1-(3-fluorophenyl)-1-[3-(2-methoxyphenyl)-1H-indol-1-yl]-3-(methylamino)propan-2-ol hydrochloride], the figure is 100%; as for `CNC[C@@H](OC)[C@H](c1ccccc1)n1cc(C)c2cc(F)ccc21` [Example 123, [(2R,3S)-3-(5-fluoro-3-methyl-1H-indol-1-yl)-2-methoxy-3-phenylpropyl]methylamine hydrochloride], 65%.

As for `Cc1cn([C@H](c2ccccc2)[C@@H](O)CNC(C)C)c2ccccc12` (racemic) [Example 10, (1RS,2SR)-3-(isopropylamino)-1-(3-methyl-1H-indol-1-yl)-1-phenylpropan-2-ol hydrochloride], for the setting “test compound 10 μM (stated in cell), [3H]NE uptake, MDCK-Net6 cells”, the inhibition at 10 µM worked out at 70.5%. `CN(C)C[C@H](O)[C@@H](c1ccccc1)n1ccc2ccccc21` (racemic) [Example 4, (1RS,2SR)-3-(dimethylamino)-1-(1H-indol-1-yl)-1-phenylpropan-2-ol hydrochloride]: the inhibition at 1 µM under setting [1] was 24.5%. On the same count and under the same terms, as for `CNC[C@@H](O)[C@H](c1ccccc1)N1C(=O)C2(CCCCC2)c2cccc(F)c21` [Example 112, 7′-fluoro-1′-[(1S,2R)-2-hydroxy-3-(methylamino)-1-phenylpropyl]-spiro[cyclohexane-1,3′-indol]-2′(1′H)-one hydrochloride], the figure is 100%; as for `CNC[C@H](O)[C@@H](c1ccc(OC(F)(F)F)cc1)n1ccc2ccccc21` (single isomer, unassigned) [Example 41, hydrochloride], 32.4%.

These data come from US20090093469A1, “Phenylaminopropanol Derivatives and Methods of Their Use” (WYETH, priority 2004, published 2009).
